Results: US20030162777A1, “Novel N-acylated heterocycles” (Recordati S.A., priority 2001, published 2003)

These molecules were tested against T1, human 5HT1A-serotonergic receptor (Homo sapiens, UniProt P08908) (assay: Radioligand binding to recombinant 5-HT1A receptors). Settings: [3H]8-OH-DPAT 1 nM, membranes of HeLa cells with human 5-HT1A receptor; Ki from IC50 by Cheng & Prusoff; read-out: Binding affinity for 5HT1A receptors, Ki.
T1 construct: expressed in transfected cells; host or cells: HeLa (human cell line), stably transfected; cell membranes used
T1 sequence (P08908 1-422): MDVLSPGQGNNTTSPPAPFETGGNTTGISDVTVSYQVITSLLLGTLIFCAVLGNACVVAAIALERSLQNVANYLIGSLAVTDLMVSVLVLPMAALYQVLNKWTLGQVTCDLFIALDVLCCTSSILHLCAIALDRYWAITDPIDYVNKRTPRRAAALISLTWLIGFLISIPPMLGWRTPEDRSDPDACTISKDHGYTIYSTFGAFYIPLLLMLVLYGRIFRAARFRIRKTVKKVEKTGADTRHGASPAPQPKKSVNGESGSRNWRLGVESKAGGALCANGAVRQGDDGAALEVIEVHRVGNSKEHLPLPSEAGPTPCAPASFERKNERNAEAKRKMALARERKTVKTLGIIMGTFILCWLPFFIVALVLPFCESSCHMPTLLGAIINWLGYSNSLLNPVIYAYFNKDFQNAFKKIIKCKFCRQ
Protocol: Genomic clone G-21 coding for the human 5HT1A-serotonergic receptor was stably transfected in a human cell line (HeLa). HeLa cells were grown as monolayers in Dulbecco's modified Eagle medium (DMEM), containing 10% foetal bovine serum, gentamicin ([…]) and 5% carbon dioxide, at 37° C. The cells were detached from the growth flask at 95% confluence by a cell scraper and were lysed in cold 5 mM Tris and 5 mM EDTA buffer (pH 7.4). The homogenates were centrifuged at 40000×g×20 minutes and the pellets were resuspended in a small volume of cold 5 mM Tris and 5 mM EDTA buffer (pH 7.4) and immediately frozen and stored at −70° C. until use. On the day of experiment, the cell membranes were resuspended in incubation buffer: 50 mM Tris HCl (pH 7.4), 2.5 mM MgCl2, […] (Fargin et al., Nature 335, 358-360, 1988). The membranes were incubated in a final volume of 1 ml for 30 minutes at 30° C. with 1 nM [^3H]8-OH-DPAT, in the absence or presence of the test compounds. Non-specific binding was determined in the presence of 10 μM 5-HT. Incubation was stopped by addition of cold Tris-HC 1 buffer and rapid filtration through a 0.2%-polyethyleneimine-pretreated Whatman-GF/B or Schleicher-&-Schuell-GF52 filter.
The affinity of the tested compounds was evaluated as inhibition of specific binding of the radioligand to 5-HT1A receptors (IC50) by using the non-linear curve-fitting program Allfit (De Lean et al., Am. J. Physiol. 235, E97-E102 (1978). The IC50 value was converted to an affinity constant (Ki) by the equation of Cheng & Prusoff (Cheng Y. C., Prusoff W. H., Biochem. Pharmacol. 22, 3099-3108 (1973)).

Row | Ki | SMILES
1 | 20 nM | O=C(C1CCCCC1)N1c2ccccc2CCC1CN1CCN(c2ccc(Br)c3[nH]ccc23)CC1 (stereo not shown) [Example 35A32, 1-(7-Bromo-4-indolyl)-4-(1-cyclohexanecarbonyl-1,2,3,4-tetrahydroquinoline-2-ylmethyl)piperazine]
2 | 17.3 nM | O=C(C1CCCCC1)N1c2c(F)cccc2CCC1CN1CCN(c2cccc3[nH]ccc23)CC1 (stereo not shown) [Example 38, 1-(1-Cyclohexanecarbonyl-8-fluoro-1,2,3,4-tetrahydroquinoline-2-ylmethyl)-4-(4-indolyl)piperazine]
3 | 5 nM | Cn1ccc2c(N3CCN(C[C@H]4CCc5ccccc5N4C(=O)C4CCCCC4)CC3)cccc21 [Example 43, (R)-1-(1-Cyclohexanecarbonyl-1,2,3,4-tetrahydroquinoline-2-ylmethyl)-4-(1-methyl-4-indolyl)piperazine]
4 | 11.2 nM | O=C(C1CCCCC1)N1c2cc(F)ccc2CCC1CN1CCN(c2cccc3[nH]ccc23)CC1 (stereo not shown) [Example 46, 1-(1-Cyclohexanecarbonyl-7-fluoro-1,2,3,4-tetrahydroquinoline-2-ylmethyl)-4-(4-indolyl)piperazine]
5 | 17.7 nM | O=C(C1CCCCC1)N1c2ccccc2CC1CN1CCN(c2cccc3[nH]ccc23)CC1 (stereo not shown) [Example 48, 1-(1-Cyclohexanecarbonyl-2,3-dihydroindole-2-ylmethyl)-4-(4-indolyl)piperazine]
6 | 41 nM | O=C(C1CCCCC1)N1c2ccc(O)cc2CCC1CN1CCN(c2cccc3[nH]ccc23)CC1 (stereo not shown) [Example 50, 1-(1-Cyclohexanecarbonyl-6-hydroxy-1,2,3,4-tetrahydroquinoline-2-ylmethyl)-4-(4-indolyl)piperazine]
7 | 8.1 nM | O=C(C1CCCCC1)N1c2ccccc2CCC1CN1CCN(c2cc(Cl)ccc2F)CC1 (stereo not shown) [Example 60A1, 1-(5-Chloro-2-fluorophenyl)-4-(1-cyclohexanecarbonyl-1,2,3,4-tetrahydroquinoline-2-ylmethyl)piperazine]
8 | 15.6 nM | COc1cc(Cl)ccc1N1CCN(CC2CCc3ccccc3N2C(=O)C2CCCCC2)CC1 (stereo not shown) [Example 62A2, 1-(4-Chloro-2-methoxyphenyl)-4-(1-cyclohexanecarbonyl-1,2,3,4-tetrahydroquinoline-2-ylmethyl)piperazine]
9 | 31.2 nM | Cc1ccc(N2CCN(CC3CCc4ccccc4N3C(=O)C3CCCCC3)CC2)c2cc[nH]c12 (stereo not shown) [Example 62A5, 1-(1-Cyclohexanecarbonyl-1,2,3,4-tetrahydroquinoline-2-ylmethyl)-4-(7-methyl-4-indolyl)piperazine]
10 | 43.4 nM | CCn1ccc2c(N3CCN(CC4CCc5ccccc5N4C(=O)C4CCCCC4)CC3)cccc21 (stereo not shown) [Example 62A, 1-(1-Cyclohexanecarbonyl-1,2,3,4-tetrahydroquinoline-2-ylmethyl)-4-(1-ethyl-4-indolyl)piperazine]

Second part, the molecule before the results:

Row | SMILES | Ki
11 | O=C(C1CCCCC1)N1c2ccccc2CCC1CN1CCN(Cc2ccccc2Cl)CC1 (stereo not shown) [Example 35A34, 1-(2-Chlorobenzyl)-4-(1-cyclohexanecarbonyl-1,2,3,4-tetrahydroquinoline-2-ylmethyl)piperazine] | 12.3 nM
12 | COc1cccc(N2CCN(CC3CCc4ccccc4N3C(=O)C3CCCCC3)CC2)n1 (stereo not shown) [Example 35A35, 1-(1-Cyclohexanecarbonyl-1,2,3,4-tetrahydroquinoline-2-ylmethyl)-4-(6-methoxy-2-pyridinyl)piperazine] | 6.2 nM
13 | O=C(C1CCCCC1)N1c2ccccc2CCC1CN1CCN(Cc2cc(Cl)ccc2Cl)CC1 (stereo not shown) [Example 35A36, 1-(1-Cyclohexanecarbonyl-1,2,3,4-tetrahydroquinoline-2-ylmethyl)-4-(2,5-dichlorobenzyl)piperazine] | 2.4 nM
14 | O=C(N1CCCCC1)N1c2ccccc2CCC1CN1CCN(c2cccc3[nH]ccc23)CC1 (stereo not shown) [Example 36, 1-(4-Indolyl)-4-(1-piperidinocarbonyl-1,2,3,4-tetrahydroquinoline-2-ylmethyl)piperazine] | 15.6 nM
15 | O=C(C1CCC(O)CC1)N1c2ccccc2CCC1CN1CCN(c2cccc3[nH]ccc23)CC1 (stereo not shown) [Example 44, (Z)-1-[1-(4-Hydroxycyclohexanecarbonyl)-1,2,3,4-tetrahydroquinoline-2-ylmethyl]-4-(4-indolyl)piperazine] | 30 nM
16 | COc1cc(F)ccc1N1CCN(CC2CCc3cc(C)ccc3N2C(=O)C2CCCCC2)CC1 (stereo not shown) [Example 53, 1-(1-Cyclohexanecarbonyl-6-methyl-1,2,3,4-tetrahydroquinoline-2-ylmethyl)-4-(4-fluoro-2-methoxyphenyl)piperazine] | 24.2 nM
17 | N#CNCCC(=O)N1c2ccccc2CCC1CN1CCN(c2cccc3[nH]ccc23)CC1 (stereo not shown) [Example 54, 1-[1-(3-Cyanominopropionyl)-1,2,3,4-tetrahydroquinoline-2-ylmethyl]-4-(4-indolyl)piperazine] | 51 nM
18 | COc1cc(F)ccc1N1CCN(CC2CCc3c(Cl)cccc3N2C(=O)C2CCCCC2)CC1 (stereo not shown) [Example 55, 1-(5-Chloro-1-cyclohexanecarbonyl-1,2,3,4-tetrahydroquinoline-2-ylmethyl)-4-(4-fluoro-2-methoxyphenyl)piperazine] | 2.4 nM
19 | COc1ccc(C(=O)N2c3cccc(Cl)c3CCC2CN2CCN(c3ccc(F)cc3OC)CC2)cc1 (stereo not shown) [Example 56, 1-[5-Chloro-1-(4-methoxybenzoyl)-1,2,3,4-tetrahydroquinoline-2-ylmethyl]-4-(4-fluoro-2-methoxyphenyl)piperazine] | 3.6 nM
20 | COc1cc(F)ccc1N1CCN(CC2CCc3ccc(Cl)cc3N2C(=O)C2CCCCC2)CC1 (stereo not shown) [Example 57, 1-(7-Chloro-1-cyclohexanecarbonyl-1,2,3,4-tetrahydroquinoline-2-ylmethyl)-4-(4-fluoro-2-methoxyphenyl)piperazine] | 2.3 nM
21 | O=C(C1CCCCC1)N1c2ccccc2CCC1CN1CCN(c2cccc3nonc23)CC1 (stereo not shown) [Example 60A8, 1-[4-(2,1,3-Benzoxadiazolyl)]-4-(1-cyclohexanecarbonyl-1,2,3,4-tetrahydroquinoline-2-ylmethyl)piperazine] | 12.2 nM
22 | COc1ccc(C(F)(F)F)cc1N1CCN(CC2CCc3ccccc3N2C(=O)C2CCCCC2)CC1 (stereo not shown) [Example 60A9, 1-(1-Cyclohexanecarbonyl-1,2,3,4-tetrahydroquinoline-2-ylmethyl)-4-(2-methoxy-5-trifluoromethylphenyl)piperazine] | 6.5 nM
23 | O=C(C1CCCCC1)N1c2ccccc2CCC1CN1CCN(C2CCCc3ccccc32)CC1 (stereo not shown) [Example 60A10, 1-(1-Cyclohexanecarbonyl-1,2,3,4-tetrahydroquinoline-2-ylmethyl)-4-[1-(1,2,3,4-tetrahydronaphthyl)]piperazine] | 31.6 nM
24 | O=C(C1CCCCC1)N1c2ccccc2CCC1CN1CCN(c2cc(Cl)cc3c2OCCO3)CC1 (stereo not shown) [Example 60A11, 1-(7-Chloro-2,3-dihydro-1,4-benzodioxin-5-yl)-4-(1-cyclohexanecarbonyl-1,2,3,4-tetrahydroquinoline-2-ylmethyl)piperazine] | 10.6 nM
25 | CCOc1cc(Cl)ccc1N1CCN(CC2CCc3ccccc3N2C(=O)C2CCCCC2)CC1 (stereo not shown) [Example 62A3, 1-(4-Chloro-2-ethoxyphenyl)-4-(1-cyclohexanecarbonyl-1,2,3,4-tetrahydroquinoline-2-ylmethyl)piperazine] | 5.7 nM
26 | COc1cc(F)ccc1N1CCN(CC2CCc3cc(-c4ccc(C(C)=O)s4)ccc3N2C(=O)C2CCCCC2)CC1 (stereo not shown) [Example 63, 1-[6-(5-Acetyl-2-thienyl)-1-cyclohexanecarbonyl-1,2,3,4-tetrahydroquinoline-2-ylmethyl)-4-(4-fluoro-2-methoxyphenyl)piperazine] | 42.9 nM
27 | COc1cc(F)ccc1N1CCN(CC2CCc3cc(-c4c(C)noc4C)ccc3N2C(=O)C2CCCCC2)CC1 (stereo not shown) [Example 64, 1-[1-Cyclohexanecarbonyl-6-(3,5-dimethylisoxazol-4-yl)-1,2,3,4-tetrahydroquinoline-2-ylmethyl]-4-(4-fluoro-2-methoxyphenyl)piperazine] | 23.9 nM
28 | COc1cc(F)ccc1N1CCN(CC2CCc3cccc(C)c3N2C(=O)C2CCCCC2)CC1 (stereo not shown) [Example 67, 1-(1-Cyclohexanecarbonyl-8-methyl-1,2,3,4-tetrahydroquinoline-2-ylmethyl)-4-(4-fluoro-2-methoxyphenyl)piperazine] | 29.4 nM
